Structures are written as SMILES.

In this experiment the target is T1, HCMV polymerase (Human cytomegalovirus, UniProt P08546).
T1 construct: made in house; host or cells: SF-9 insect cells infected with recombinant baculovirus
T1 sequence (P08546 whole entry): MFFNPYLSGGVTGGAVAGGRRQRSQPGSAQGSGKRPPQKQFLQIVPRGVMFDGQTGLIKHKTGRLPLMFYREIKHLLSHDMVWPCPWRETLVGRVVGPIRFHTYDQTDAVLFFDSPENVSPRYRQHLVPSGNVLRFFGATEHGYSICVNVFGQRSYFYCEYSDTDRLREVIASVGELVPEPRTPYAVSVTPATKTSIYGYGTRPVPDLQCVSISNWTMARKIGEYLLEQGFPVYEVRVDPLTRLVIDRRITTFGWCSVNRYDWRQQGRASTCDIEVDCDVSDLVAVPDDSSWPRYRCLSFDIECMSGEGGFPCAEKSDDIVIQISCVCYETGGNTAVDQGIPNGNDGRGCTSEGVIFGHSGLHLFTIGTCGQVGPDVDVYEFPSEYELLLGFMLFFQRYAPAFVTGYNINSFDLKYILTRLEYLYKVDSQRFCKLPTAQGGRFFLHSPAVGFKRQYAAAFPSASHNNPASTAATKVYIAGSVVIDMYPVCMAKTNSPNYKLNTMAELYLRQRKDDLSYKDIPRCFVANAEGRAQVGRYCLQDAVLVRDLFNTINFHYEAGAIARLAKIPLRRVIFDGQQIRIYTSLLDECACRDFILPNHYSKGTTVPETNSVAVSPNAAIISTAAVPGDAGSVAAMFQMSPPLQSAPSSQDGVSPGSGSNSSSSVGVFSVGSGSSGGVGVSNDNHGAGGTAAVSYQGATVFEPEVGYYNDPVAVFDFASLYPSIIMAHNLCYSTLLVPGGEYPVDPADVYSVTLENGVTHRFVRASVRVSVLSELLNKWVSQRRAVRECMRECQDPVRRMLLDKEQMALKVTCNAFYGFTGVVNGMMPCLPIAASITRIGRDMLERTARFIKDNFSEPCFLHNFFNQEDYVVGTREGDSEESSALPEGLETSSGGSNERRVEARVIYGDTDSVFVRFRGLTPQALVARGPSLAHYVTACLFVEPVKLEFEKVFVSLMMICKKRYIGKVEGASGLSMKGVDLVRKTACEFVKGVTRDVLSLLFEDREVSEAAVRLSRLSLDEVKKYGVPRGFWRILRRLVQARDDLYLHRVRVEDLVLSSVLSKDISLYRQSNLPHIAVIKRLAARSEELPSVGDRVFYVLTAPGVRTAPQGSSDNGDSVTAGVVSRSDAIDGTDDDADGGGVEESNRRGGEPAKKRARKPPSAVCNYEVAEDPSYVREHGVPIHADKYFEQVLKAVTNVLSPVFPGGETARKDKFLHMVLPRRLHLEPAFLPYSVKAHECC
Put plainly: HCMV polymerase assay (scintillation proximity assay). The note with it: percentage of inhibition at 25 μM concentration in CMV polymerase assay. The class given is biochemical. In short, it runs like this:
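Values are percent inhibition at 25 μM, measured by scintillation proximity after capture of biotinylated poly(dA)-oligo(dT) (6 nM) extended with 90 nM 3H-dTTP. Recombinant SF-9-derived enzyme reacted 30 min at 25 or 37 °C in HEPES pH 7.5/KCl/MgCl2/BSA buffer, ±2 mM CHAPS, before EDTA termination.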
What is called inhibition is the share of the control response that was lost under treatment. A higher inhibition goes with a response far below the control. `O=C(CCCCCl)Nc1nnc(NCc2ccc3c(c2)OCO3)s1` [compound 165, N-{5-[(1,3-benzodioxol-5-ylmethyl)amino]-1,3,4-thiadiazol-2-yl}-5-chloropentanamide]: the inhibition at 25 µM amounted to 51.3%.
The molecule `CCCCCCCCCCCNc1nnc(NC(=O)c2ccc(C)cc2)s1` [compound 167, 4-methyl-N-[5-(undecylamino)-1,3,4-thiadiazol-2-yl]benzamide] registered an inhibition at 25 µM of 50.8%.
`O=C(Nc1nnc(NCc2ccncc2)s1)c1cc2ccccc2s1` [compound 222, N-{5-[(4-pyridinylmethyl)amino]-1,3,4-thiadiazol-2-yl}-1-benzothiophene-2-carboxamide] had an inhibition at 25 µM of 43.2%.
Regarding `CCSCCNc1nnc(NC(=O)c2ccc(I)cc2)s1` [compound 148, N-(5-{[2-(ethylsulfanyl)ethyl]amino}-1,3,4-thiadiazol-2-yl)-4-iodobenzamide], the inhibition at 25 µM was 54.6%.
`O=C(Nc1nnc(NC2CCCc3ccccc32)s1)c1cc2ccccc2s1` (stereo not shown) [compound 343, N-[5-(1,2,3,4-tetrahydro-1-naphthalenylamino)-1,3,4-thiadiazol-2-yl]-1-benzothiophene-2-carboxamide] returned an inhibition at 25 µM of 31.2%.
Molecule `O=C(/C=C/c1ccccc1)Nc1nnc(NCCCN2CCCC2=O)s1` [compound 130, (E)-N-(5-{[3-(2-oxo-1-pyrrolidinyl)propyl]amino}-1,3,4-thiadiazol-2-yl)-3-phenyl-2-propenamide] had an inhibition at 25 µM of 58.2%.
Take `O=C(/C=C/c1ccccc1Cl)Nc1nnc(NC2CCN(Cc3ccccc3)CC2)s1` [compound 110, (E)-N-{5-[(1-benzyl-4-piperidinyl)amino]-1,3,4-thiadiazol-2-yl}-3-(2-chlorophenyl)-2-propenamide]: the inhibition at 25 µM was 62.9%.
Consider `CCSCCNc1nnc(NC(=O)/C=C/c2ccccc2Cl)s1` [compound 193, (E)-3-(2-chlorophenyl)-N-(5-{[2-(ethylsulfanyl)ethyl]amino}-1,3,4-thiadiazol-2-yl)-2-propenamide], for which the inhibition at 25 µM stood at 46.9%.
`COc1ccccc1C(=O)Nc1nnc(NCCCCc2ccccc2)s1` [compound 429, 2-methoxy-N-{5-[(4-phenylbutyl)amino]-1,3,4-thiadiazol-2-yl}benzamide] gave an inhibition at 25 µM of 23.2%.
Take `CCCCCCCCCCCNc1nnc(NC(=O)c2ccc(F)cc2F)s1` [compound 121, 2,4-difluoro-N-[5-(undecylamino)-1,3,4-thiadiazol-2-yl]benzamide]: 25 µM produced 60% inhibition.
`NS(=O)(=O)c1ccc(CNc2nnc(NC(=O)c3cc4ccccc4s3)s2)cc1` [compound 223, N-(5-{[4-(aminosulfonyl)benzyl]amino}-1,3,4-thiadiazol-2-yl)-1-benzothiophene-2-carboxamide] showed an inhibition at 25 µM of 43.1%.
For the molecule `O=C(Nc1nnc(NCc2ccc3c(c2)OCO3)s1)c1ccc(Br)cc1` [compound 273, N-{5-[(1,3-benzodioxol-5-ylmethyl)amino]-1,3,4-thiadiazol-2-yl}-4-bromobenzamide], at 25 µM the inhibition was 38.1%.
In turn, `O=C(Nc1nnc(NCc2cccs2)s1)c1ccc2c(c1)C(=O)OC2=O` [compound 39, 1,3-dioxo-N-{5-[(2-thienylmethyl)amino]-1,3,4-thiadiazol-2-yl}-1,3-dihydro-2-benzofuran-5-carboxamide] had an inhibition at 25 µM of 87.1%.
Regarding `O=C(Nc1nnc(NCc2ccc3c(c2)OCO3)s1)c1ccc(F)cc1F` [compound 305, N-{5-[(1,3-benzodioxol-5-ylmethyl)amino]-1,3,4-thiadiazol-2-yl}-2,4-difluorobenzamide], the inhibition at 25 µM came out at 34.5%.
Turning to `O=C(Nc1nnc(NCCCCc2ccccc2)s1)c1ccc([N+](=O)[O-])o1` [compound 131, 5-nitro-N-{5-[(4-phenylbutyl)amino]-1,3,4-thiadiazol-2-yl}-2-furamide], at 25 µM the inhibition was 58%.
Regarding `CCCCC(CC)CNc1nnc(NC(=O)c2ccc3c(c2)C(=O)OC3=O)s1` (stereo not shown) [compound 116, N-{5-[(2-ethylhexyl)amino]-1,3,4-thiadiazol-2-yl}-1,3-dioxo-1,3-dihydro-2-benzofuran-5-carboxamide], the inhibition at 25 µM was determined as 61.9%.
As for `CC(C)c1cc(C(C)C)c(C(=O)Nc2nnc(NCCNc3ccccc3)s2)c(C(C)C)c1` [compound 248, N-{5-[(2-anilinoethyl)amino]-1,3,4-thiadiazol-2-yl}-2,4,6-triisopropylbenzamide], at 25 µM the inhibition was 40.8%.
Regarding `O=C(/C=C/c1ccccc1Cl)Nc1nnc(NCCC(c2ccccc2)c2ccccc2)s1` [compound 240, (E)-3-(2-chlorophenyl)-N-{5-[(3,3-diphenylpropyl)amino]-1,3,4-thiadiazol-2-yl}-2-propenamide], the inhibition at 25 µM is 41.3%.
With `O=C(/C=C/c1ccccc1)Nc1nnc(NCc2ccncc2)s1` [compound 94, (E)-3-phenyl-N-{5-[(4-pyridinylmethyl)amino]-1,3,4-thiadiazol-2-yl}-2-propenamide], the inhibition at 25 µM is 65.9%.
Regarding `O=C(/C=C/c1ccccc1)Nc1nnc(NCc2cccc3ccccc23)s1` [compound 329, (E)-N-{5-[(1-naphthylmethyl)amino]-1,3,4-thiadiazol-2-yl}-3-phenyl-2-propenamide], the inhibition at 25 µM is 32.4%.
The molecule `CC(C)c1cc(C(C)C)c(C(=O)Nc2nnc(NCCc3cccs3)s2)c(C(C)C)c1` [compound 396, 2,4,6-triisopropyl-N-(5-{[2-(2-thienyl)ethyl]amino}-1,3,4-thiadiazol-2-yl)benzamide] came in with an inhibition at 25 µM of 25.9%.
Turning to `O=C(Nc1nnc(NC2CCN(Cc3ccccc3)CC2)s1)c1ccc([N+](=O)[O-])o1` [compound 456, N-{5-[(1-benzyl-4-piperidinyl)amino]-1,3,4-thiadiazol-2-yl}-5-nitro-2-furamide], testing at 25 µM gave an inhibition of 20.8%.
Same read-out and setting: the result for `CCCCCCCC/C=C/CCCCCCCC(=O)Nc1nnc(NCCC(=O)OC(C)(C)C)s1` [compound 79, tert-butyl-3-({5-[(E)-9-octadecenoylamino]-1,3,4-thiadiazol-2-yl}amino)propanoate] reads 68%.
Still for that read-out and setting: the result for `CC(C)c1cc(C(C)C)c(C(=O)Nc2nnc(NCc3ccc4c(c3)OCO4)s2)c(C(C)C)c1` [compound 358, N-{5-[(1,3-benzodioxol-5-ylmethyl)amino]-1,3,4-thiadiazol-2-yl}-2,4,6-triisopropylbenzamide] reads 29.3%; that for `O=C(Nc1nnc(NCCC(c2ccccc2)c2ccccc2)s1)c1ccc(I)cc1` [compound 297, N-{5-[(3,3-diphenylpropyl)amino]-1,3,4-thiadiazol-2-yl}-4-iodobenzamide], 35%.
With `CCCCCCCCCCCNc1nnc(NC(=O)c2ccc(S(=O)(=O)F)cc2)s1` [compound 49, 4-({[5-(undecylamino)-1,3,4-thiadiazol-2-yl]amino}carbonyl)benzenesulfonyl fluoride], the “% Inhib” value amounted to 80.3%.
For `O=C(Nc1nnc(NCc2ccc3c(c2)OCO3)s1)c1cc(F)cc(F)c1` [compound 372, N-{5-[(1,3-benzodioxol-5-ylmethyl)amino]-1,3,4-thiadiazol-2-yl}-3,5-difluorobenzamide], at 25 µM the inhibition was 28.1%.
Still for that read-out and setting: in the case of `O=C(Nc1nnc(NCCCNC2CCCCC2)s1)c1ccc(I)cc1` [compound 212, N-(5-{[3-(cyclohexylamino)propyl]amino}-1,3,4-thiadiazol-2-yl)-4-iodobenzamide] it was 44.2%.
